Read-outs that look alike come from different tables or passages of the source.
Tested on: 280 human cancer cell lines
Experiment: OncoPanel cell proliferation assay (10-day)
Assay type: cell-based
Settings: Homo sapiens; for GI50: read-out: Cell Count GI50; for IC50: read-out: Cell Count IC50; for EC50: read-out: Cell Count EC50
[1] = KHOS-240S, Soft Tissue - Osteosarcoma
[2] = ME-180, ME-180, Female GU - Ovary
[3] = MG-63, MG-63, Soft Tissue - Osteosarcoma
[4] = MHH-PREB-1, MHH-PREB-1, Leukemia
[5] = MIA PaCa-2, Mia PaCa-2, Pancreas
[6] = MS751, MS751, Female GU - Ovary
[7] = Malme-3M, MALME3M, Skin (Melanoma)
[8] = NCI-H292, NCI-H292, Lung - NSCLC
[9] = NCI-H295R, Endocrine - Adrenal gland
[10] = NCI-H441, NCIH441, Lung - NSCLC
[11] = NCI-H460, NCI-H460, Lung - NSCLC
[12] = NCI-H520, NCI-H520, Lung - NSCLC
[13] = NCI-H596, NCI-H596, Lung - NSCLC
[14] = NCI-H661, NCI-H661, Lung - NSCLC
[15] = NTERA-2-cl-D1, NTERA-2 cl.D1, Testis
[16] = OVCAR-3, OVCAR3, Female GU - Ovary
[17] = RPMI-7951, RPMI-7951, Skin (Melanoma)
[18] = SAOS-2, SaOS2, Soft Tissue - Osteosarcoma

## CC(C)=CCC[C@H](C)[C@@H]1CC[C@@H](C)c2c1cc(C)c(O)c2O [Compound 4, 7,8-dihydroxyserrulat-14-ene]
[1]
  GI50: 4.96 µM
  IC50: 4.96 µM
KLE, Female GU - Uterus
  EC50: 18.2 µM
  GI50: 16.6 µM
  IC50: 18.2 µM
KPL-1, KPL-1, Breast
  EC50: 4.18 µM
  GI50: 4.13 µM
  IC50: 4.18 µM
KU812, KU812, Leukemia
  EC50: 9.5 µM
  GI50: 9.13 µM
  IC50: 9.5 µM
L-428, L-428, Lymphoma
  EC50: 2.07 µM
  GI50: 2.06 µM
  IC50: 2.07 µM
LNCaP, Prostate
  EC50: 11.5 µM
  GI50: 12.4 µM
  IC50: 12.9 µM
LS-123, LS123, Colon
  EC50: 12 µM
  GI50: 10.7 µM
  IC50: 12 µM
LS-411N, LS411N, Colon
  EC50: 23.1 µM
  GI50: 22.6 µM
  IC50: 23.1 µM
LS-1034, LS1034, Colon
  EC50: 23.6 µM
  GI50: 23.5 µM
  IC50: 23.6 µM
M059J, CNS - Glioma
  EC50: 13 µM
  GI50: 12.9 µM
  IC50: 13 µM
MC116, MC116, Lymphoma
  EC50: 12.5 µM
  GI50: 12.4 µM
  IC50: 12.5 µM
MC-IXC, CNS - Neuroblastoma
  EC50: 6.88 µM
  GI50: 6.88 µM
  IC50: 6.88 µM
MCF7, MCF7, Breast
  EC50: 12.1 µM
  GI50: 11.9 µM
  IC50: 12.1 µM
MDA-MB-231, MDA MB 231, Breast
  EC50: 11.4 µM
  GI50: 11.3 µM
  IC50: 11.4 µM
MDA-MB-436, MDA-MB-436, Breast
  EC50: 10.3 µM
  GI50: 10.2 µM
  IC50: 10.3 µM
MDA-MB-453, MDA MB 453, Breast
  EC50: 3.76 µM
  GI50: 3.68 µM
  IC50: 3.76 µM
MDA-MB-468, MDA MB 468, Breast
  EC50: 7.41 µM
  GI50: 7.34 µM
  IC50: 7.43 µM
[2]
  EC50: 25.3 µM
  GI50: 25.2 µM
  IC50: 25.3 µM
MEG-01, MEG01, Leukemia
  EC50: 8.39 µM
  GI50: 8.37 µM
  IC50: 8.39 µM
MES-SA, Soft Tissue - Sarcoma
  EC50: 6.49 µM
  GI50: 6.44 µM
  IC50: 6.49 µM
[3]
  EC50: 11.2 µM
  GI50: 11.1 µM
  IC50: 11.2 µM
[4]
  EC50: 5.71 µM
  GI50: 5.71 µM
  IC50: 5.71 µM
[5]
  EC50: 11 µM
  GI50: 11 µM
  IC50: 11 µM
MOLT-3, MOLT-3, Leukemia
  EC50: 3.15 µM
  GI50: 3.13 µM
  IC50: 3.15 µM
MOLT-16, MOLT-16, Leukemia
  EC50: 4.02 µM
  GI50: 4.01 µM
  IC50: 4.02 µM
[6]
  EC50: 12.1 µM
  GI50: 12 µM
  IC50: 12.1 µM
MT-3, Colon
  EC50: 23.9 µM
  GI50: 23.8 µM
  IC50: 23.9 µM
MV4-11, MV-4-11, Leukemia
  EC50: 3.81 µM
  GI50: 3.8 µM
  IC50: 3.81 µM
MX1, Leukemia
  EC50: 2.46 µM
  GI50: 2.46 µM
  IC50: 2.46 µM
[7]
  EC50: 20.6 µM
  GI50: 17.8 µM
  IC50: 20.6 µM
MeWo, Skin (Melanoma)
  EC50: 9.66 µM
  GI50: 9.51 µM
  IC50: 9.66 µM
NALM-6, NALM-6, Leukemia
  EC50: 2.61 µM
  GI50: 2.61 µM
  IC50: 2.61 µM
NAMALWA, Lymphoma
  EC50: 3.91 µM
  GI50: 3.9 µM
  IC50: 3.91 µM
NCI-H69, NCI-H69, Lung - SCLC
  EC50: 15.9 µM
  GI50: 15.1 µM
  IC50: 15.9 µM
[8]
  EC50: 9.21 µM
  GI50: 9.19 µM
  IC50: 9.21 µM
[9]
  EC50: 25.6 µM
  GI50: 21.6 µM
  IC50: 25.6 µM
[10]
  EC50: 4.76 µM
  GI50: > 30 µM
  IC50: > 30 µM
NCI-H446, NCIH446, Lung - SCLC
  EC50: 7.81 µM
  GI50: 7.62 µM
  IC50: 7.81 µM
[11]
  EC50: 12.2 µM
  GI50: 13 µM
  IC50: 13 µM
NCI-H508, NCI-H508, Colon
  EC50: > 30 µM
  GI50: > 30 µM
  IC50: > 30 µM
[12]
  EC50: 20.8 µM
  GI50: 20.6 µM
  IC50: 20.8 µM
[13]
  EC50: 28.2 µM
  GI50: > 30 µM
  IC50: > 30 µM
[14]
  EC50: 5.94 µM
  GI50: 5.86 µM
  IC50: 5.94 µM
NCI-H747, NCI-H747, Colon
  EC50: 28.1 µM
  GI50: 28.1 µM
  IC50: 28.2 µM
[15]
  EC50: 7.41 µM
  GI50: 7.39 µM
  IC50: 7.41 µM
OCUG-1, OCUG-1, Liver
  EC50: 15.6 µM
  GI50: 15.5 µM
  IC50: 15.6 µM
OE19, OE19, Head and Neck
  EC50: 20.7 µM
  GI50: 20.5 µM
  IC50: 20.7 µM
OE21, OE21, Head and Neck
  EC50: 12.7 µM
  GI50: 12.7 µM
  IC50: 12.7 µM
[16]
  EC50: 15.6 µM
  GI50: 14.9 µM
  IC50: 15.6 µM
PA-1, Female GU - Ovary
  EC50: 7.89 µM
  GI50: 7.89 µM
  IC50: 7.9 µM
PANC-1, PANC-1, Pancreas
  EC50: 11.7 µM
  GI50: 11.6 µM
  IC50: 11.7 µM
PC-3, Prostate
  EC50: 7.71 µM
  GI50: 7.64 µM
  IC50: 7.71 µM
PFSK-1, PFSK-1, CNS - Glioma
  EC50: 3.82 µM
  GI50: 3.8 µM
  IC50: 3.82 µM
PSN1, PSN-1, Pancreas
  EC50: 5.04 µM
  GI50: 5.04 µM
  IC50: 5.04 µM
RD, Soft Tissue - Sarcoma
  EC50: 5.19 µM
  GI50: 5.17 µM
  IC50: 5.19 µM
RKO, Colon
  EC50: 12 µM
  GI50: 12 µM
  IC50: 12 µM
RKOE6, RKOE6, Colon
  EC50: 6.79 µM
  GI50: 6.76 µM
  IC50: 6.79 µM
RPMI-6666, RPMI 6666, Lymphoma
  EC50: 23.1 µM
  GI50: 23 µM
  IC50: 23.1 µM
[17]
  EC50: 9.98 µM
  GI50: 9.96 µM
  IC50: 9.98 µM
RPMI-8226, RPMI 8226, Myeloma
  EC50: 3.03 µM
  GI50: 3.03 µM
  IC50: 3.04 µM
RS4-11, RS4, 11, Leukemia
  EC50: 4.15 µM
  GI50: 4.16 µM
  IC50: 4.23 µM
Raji, Lymphoma
  EC50: 3.92 µM
  GI50: 3.92 µM
  IC50: 3.92 µM
Ramos, Ramos (RA 1), Lymphoma
  EC50: 4.17 µM
  GI50: 4.17 µM
  IC50: 4.17 µM
[18]
  EC50: 10.6 µM
  GI50: 10.7 µM
  IC50: 10.7 µM
SCC-4, SCC-4, Head and Neck
  EC50: 15.8 µM
  GI50: 15.5 µM
  IC50: 15.8 µM
SCC-9, SCC-9, Head and Neck
  EC50: 16.5 µM
  GI50: 16.4 µM
  IC50: 16.5 µM
SCC-25, SCC-25, Head and Neck
  EC50: 25 µM
  GI50: 25 µM
  IC50: 25 µM
SCaBER, Bladder
  EC50: 16.9 µM
  GI50: 16.8 µM

— patent publication US11331299B2, “Medicinal use of serrulatane diterpenes” (The University of Sydney, priority 2016, dated 2022)
